{"source": "patent US11969505B2", "about": "“Method for freeze-drying cells in a hydrogel comprising nanofibrillar cellulose and freeze-dried cells in an aerogel comprising nanofibrillar cellulose” (UPM-KYMMENE CORPORATION, priority 2016, dated 2024)", "system": "Hep G2 cells", "assay": "Cellstain double staining (Live/Dead, calcein AM / propidium iodide) viability after freeze-drying and rehydration", "format": "cell-based, human", "settings": "24 h trehalose incubation, same lyoprotectants, liquid nitrogen freezing; with vs without GrowDex", "text": "One method to evaluate the cell membrane integrity is enzyme activity assays combined with nuclei staining. Calcein AM (acetoxy methyl) ester and propidium iodide are suitable for viability assessment of different microbes. Calcein AM is itself a non-fluorescent and cell membrane permeable molecule, but undergoes an esterase reaction when in cytosol if correct enzymes are available and transforms into calcein, which is a fluorescent molecule. This way, the fluorescent cells can be visually observed with fluorescence microscopy or a plate reader.\nTherefore, only necrotic cells are affected, whereas apoptotic and healthy cells not. Once in the cytosol, the PI binds to any available DNA and RNA, including the DNA in nucleus. When excited with 535 nm light, an emission of 617 nm can be observed on the areas of dead cells.\nThree lyoprotectants were chosen for testing with GrowDex®. First, the cells were cultivated regularly for 4 days either in 2D or 3D with 0.8% (w/w) of GrowDex®, and then the medium was changed. […] Then, the systems were freeze-dried and rehydrated and evaluated for viability with Cellstain double staining and fluorescence microscopy. […]\nAutofluorescence was ruled out by killed control samples that were stained and imaged at the same time showing no green fluorescence in identical settings. […]", "data": [{"compound": "OC[C@H]1O[C@H](O[C@H]2O[C@H](CO)[C@@H](O)[C@H](O)[C@H]2O)[C@H](O)[C@@H](O)[C@@H]1O", "note": "[trehalose, α-D-glucopyranosyl-(1→1)-α-D-glucopyranoside]", "values": [{"measurement": "Live/dead dual staining outcome after freeze-drying and rehydration", "value": "the cells did not survive"}]}]}
